Test results: patent US8143212B2 (Vicuron Pharmaceuticals Inc., priority 2002, dated 2012)

Key:
[1] = tested on: Candida albicans SKF 2270; assay: MIC by broth microdilution (NCCLS) (Tables 42, 44); assay type: cell-based
[2] = tested on: Escherichia coli, Proteus vulgaris, Pseudomonas aeruginosas; assay: MIC by broth microdilution (NCCLS) of IsoB0 and reference compounds (Table 44), non-gram-positive bacterial strains; assay type: cell-based
Protocol: (§1) MICs were determined by the broth microdilution methodology following the standard NCCLS procedure, with or without 30% bovine serum, using bacterial inocula of approximately 5×10^5 CFU/mL. Tests were read after 20-24 h incubation at 35° C.

[3] = tested on: gram-negative bacteria; assay: MIC by broth microdilution (NCCLS) (Table 42); assay type: cell-based
[4] = tested on: gram positive bacteria; assay: MIC by broth microdilution (NCCLS), with or without 30% bovine serum (Table 42); assay type: cell-based
[5] = tested on: panel of gram-positive bacteria; assay: MIC by broth microdilution (NCCLS) of IsoB0 and reference compounds (Table 44); assay type: cell-based
Protocol: Müller Hinton broth (Difco Laboratories, Detroit, Mich., USA) adjusted with CaCl2 and MgCl2 to a final concentrations of 20 mg/L and 10 mg/L respectively.
The microorganisms used are reference standard strains from the American Type Culture Collection (ATCC, Rockville, USA), Smith Kline and French Laboratories (SKF) and the Upjohn Company (UC, Kalamazoo, Mich., USA).
as §1

[6] = tested on: gram-negative bacteria; details: E. coli ATCC25922 ref. strain; NCCLS M100 S-12; cited from earlier work
[7] = Pseudomonas aeruginosas ATCC 10145
[8] = E. faecalis ATCC29212 ref. strain
[9] = Enterococcus faecalis ATCC 7080
[10] = S. aureus ATCC 29213 ref. strain
[11] = Staphylococcus aureus Smith ATCC 19636

Substance: Gentamycin [reference compound]
- MIC ([1]; Candida albicans SKF 2270 (Table 42)): >128 µg/mL
- MIC ([1]; Candida albicans SKF2270 (Table 44)): >128 µg/mL
- MIC ([2]; E. coli ATCC25922 ref. strain): 1 µg/mL
- MIC ([2]; Escherichia coli SKF 12140): 2 µg/mL
- MIC ([2]; Proteus vulgaris ATCC 881): 2 µg/mL
- MIC [2, 7]: 1 µg/mL
- MIC ([3]; E. coli ATCC25922 ref. strain): 1 µg/mL
- MIC ([3]; Escherichia coli SKF 12140): 2 µg/mL
- MIC ([3]; Proteus vulgaris ATCC 881): 2 µg/mL
- MIC [3, 7]: 1 µg/mL
- MIC ([4]; Bacillus subtilis ATCC 6633): 0.25 µg/mL
- MIC [4, 8]: 32 µg/mL
- MIC [4, 9]: 8 µg/mL
- MIC [4, 10]: 8 µg/mL
- MIC ([4]; S. aureus Smith + 30% BS): ≦0.125 mg/L
- MIC ([4]; S. epidermidis ATCC 12228): ≦0.125 mg/L
- MIC ([4]; S. pneumoniae Felton UC41): 8 µg/mL
- MIC [4, 11]: 0.5 µg/mL
- MIC ([4]; Streptococcus pyrogenes SKF 13400): 4 µg/mL
- MIC ([5]; Bacillus subtilis ATCC 6633): 0.25 µg/mL
- MIC [5, 8]: 32 µg/mL
- MIC [5, 9]: 8 µg/mL
- MIC [5, 10]: 8 µg/mL
- MIC ([5]; S. aureus Smith + 30% BS): ≦0.125 mg/L
- MIC ([5]; S. epidermidis ATCC 12228): ≦0.125 mg/L
- MIC ([5]; S. pneumoniae Felton UC41): 8 µg/mL
- MIC [5, 11]: 0.5 µg/mL
- MIC ([5]; Streptococcus pyogenes SKF13400): 4 µg/mL
- Quality control range of MICs for reference strains [6]: ^3GE 0.25-1 mg/L
